# According to the RepoRT retention time repository:
# Experiment: HILIC, Waters ACQUITY UPLC BEH Amide, 100 × 2.1 mm, 1.7 µm; A: water + 0.125% formic acid + 10 mM ammonium formate; B: 5% water + 95% acetonitrile + 0.125% formic acid + 10 mM ammonium formate; gradient (min/%B) 0/100 2/100 7.7/70 9.5/40 10.25/30 12.75/100 17/100
# Details: stereoisomer not certain
row,SMILES,LC retention time
1,CC(=O)Oc1ccc2c(C)cc(=O)oc2c1 [4-Methylumbelliferyl acetate],1.06 min
2,O=[N+]([O-])c1cc[n+]([O-])c2ccccc12 [4-Nitroquinoline-N-oxide],1.14 min
3,Cc1ncc(CO)c(C(=O)O)c1O [4-Pyridoxic acid],2.66 min
4,O=C(O)c1ccnc2ccccc12 [4-Quinolinecarboxylic acid],4.58 min
5,O=c1[nH]c(=S)ccn1C1OC(CO)C(O)C1O (stereo not drawn) [4-Thiouridine],2.27 min
6,C[N+](C)(C)CCCC(=O)O [4-Trimethylammoniobutanoic acid],7.66 min
7,CSCC1OC(n2cnc3c(N)ncnc32)C(O)C1O (stereo not drawn) [5'-Methylthioadenosine],2.49 min
8,COCC1OC(n2cc(C)c(=O)[nH]c2=O)CC1O (stereo not drawn) [5'-O-Methylthymidine],1.46 min
9,"CC1CNC(=O)NC1=O (stereo not drawn) [5,6-Dihydro-5-methyluracil]",1.57 min
10,"O=C1CCNC(=O)N1 [5,6-Dihydrouracil]",1.77 min
11,"Cc1cc2nc[nH]c2cc1C [5,6-Dimethylbenzimidazole]",1.82 min
12,NC(=O)c1[nH]cnc1N [5-Aminoimidazole-4-carboxamide],4.18 min
13,NCCCCC(=O)O [5-Aminovaleric acid],7.24 min
14,CC(C)CCCC(C)C1CCC2C3C(O)C=C4CC(O)CCC4(C)C3CCC12C (stereo not drawn) [5-Cholesten-3-beta-7-alpha-diol],3.36 min
15,O=c1ncc(F)c[nH]1 [5-Fluro-2-pyrimidone],1.77 min
16,Nc1[nH]c(=O)ncc1F [5-Flurocytosine],4.62 min
17,O=C(O)Cc1c[nH]c2ccc(O)cc12 [5-Hydroxy-3-indoleacetic acid],1.78 min
18,Nc1nc(=O)n(C2OC(CO)C(O)C2O)cc1CO (stereo not drawn) [5-Hydroxymethylcytidine],7.54 min
19,Nc1[nH]c(=O)ncc1CO [5-Hydroxymethylcytosine],6.9 min
20,NC(Cc1c[nH]c2ccc(O)cc12)C(=O)O (stereo not drawn) [5-Hydroxytryptophan],7.48 min
21,OCCc1c[nH]c2ccc(O)cc12 [5-Hydroxytryptophol],5.93 min
22,COc1ccc2[nH]cc(CCN)c2c1 [5-Methoxytryptamine],4.99 min
23,CCCCCCCCCOc1ccc2[nH]cc(CCN)c2c1 [5-Nonyloxytryptamine],3.4 min
24,O=C(O)CCCCCO [6-Hydroxycaproic acid],1.34 min

# More lines, now with the values ahead:
row,LC retention time,SMILES
1,1.32 min,COc1ccc2[nH]cc(CC(=O)O)c2c1 [5-Methoxy-3-indoleacetic acid]
2,1.07 min,COc1c2ccoc2cc2oc(=O)ccc12 [5-Methoxypsoralen]
3,1.18 min,COc1ccc2[nH]cc(CCO)c2c1 [5-Methoxytryptophol]
4,4.72 min,COc1cn(C2OC(CO)C(O)C2O)c(=O)[nH]c1=O (stereo not drawn) [5-Methoxyuridine]
5,1.98 min,Cc1cn(C2OC(CO)C(O)C2O)c(=S)[nH]c1=O (stereo not drawn) [5-Methyl-2-thiouridine]
6,2.6 min,Cc1cn(C2OC(CO)CC2O)c(=O)[nH]c1=O (stereo not drawn) [5-Methyl-3-deoxyuridine]
7,6.39 min,Cc1cn(C2OC(CO)C(O)C2O)c(=O)nc1N (stereo not drawn) [5-Methylcytidine]
8,6.62 min,Cc1cnc(=O)[nH]c1N [5-Methylcytosine]
9,4.19 min,Cc1cn(C2OC(CO)C(O)C2O)c(=O)[nH]c1=O (stereo not drawn) [5-Methyluridine]
10,1.26 min,Nc1ccc2cn[nH]c2c1 [6-Aminoindazole]
11,4.31 min,O=c1cnn(C2OC(CO)C(O)C2O)c(=O)[nH]1 (stereo not drawn) [6-Azuridine]
12,1.26 min,O=c1cc(-c2ccccc2)oc2ccc(O)cc12 [6-Hydroxyflavone]
13,7.3 min,CC(C)=CCCC(C)O (stereo not drawn) [6-Methyl-5-hepten-2-ol]
14,3.56 min,CNc1ncnc2c1ncn2C1OC(CO)C(O)C1O (stereo not drawn) [6-Methyladenosine]
